These results are taken from US7713954B2, “Compositions and methods for treating cognitive disorders” (Roche Palo Alto LLC, priority 2004, dated 2010).

In test [1] the target is T1, Histamine H1 receptor (Cavia porcellus, UniProt P31389).
T1 construct: from tissue; host or cells: guinea-pig cerebellum
Nature of the test: Affinity to Histamine H1 receptor in guinea-pig cerebellum. The format is binding. The conditions noted are these: read-out: Receptor Affinity (pKi) Histamine H1 (converted).

Test [2] has as its target T2, human recombinant 5-HT2C (Homo sapiens, UniProt P28335).
T2 sequence (P28335 33-458): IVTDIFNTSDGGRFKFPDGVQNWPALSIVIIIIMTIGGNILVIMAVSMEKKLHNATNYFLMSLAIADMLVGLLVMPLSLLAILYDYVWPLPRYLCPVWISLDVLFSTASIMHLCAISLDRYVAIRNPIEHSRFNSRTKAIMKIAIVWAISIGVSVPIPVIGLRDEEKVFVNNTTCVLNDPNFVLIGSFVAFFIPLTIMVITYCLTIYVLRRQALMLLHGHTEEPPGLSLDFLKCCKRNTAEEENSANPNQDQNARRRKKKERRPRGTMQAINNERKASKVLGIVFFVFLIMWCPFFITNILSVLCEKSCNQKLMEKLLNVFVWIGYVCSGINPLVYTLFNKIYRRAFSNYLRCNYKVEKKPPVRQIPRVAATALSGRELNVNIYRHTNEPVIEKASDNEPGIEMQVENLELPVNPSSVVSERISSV
Nature of the test: Receptor affinity at 5-HT2C (Table 1; only a FLIPR calcium method is described). The class given is binding.

In test [3] the test system is male Wistar rats. Nature of the test: Novel object recognition model, scopolamine-induced memory impairment. The class given is in vivo, rat. The conditions noted are these: for reversal of the memory impairment induced by scopolamine (discrimination index d2): 90 or 60 mins prior to scopolamine 0.1 mg/kg ip; for reversal of scopolamine-induced memory impairment (discrimination index d2): with scopolamine 0.1 mg/kg sc, 30 mins prior to re-release. As to the method:
Twenty-four 5-month-old male Wistar rats were used. The animals were housed individually in standard Makrolon cages on sawdust bedding in an air-conditioned room (about 20° C.). They were kept under a 12/12-hour light/dark cycle (lights on from 18.00 to 6.00 h) and had free access to food and water. Rats were housed and test in different rooms. A radio, which was playing softly, provided background noise in all rooms. All testing was done between 9.00 and 16.00 h.
Scopolamine hydrobromide was prepared daily and dissolved in saline. […] (injection volume 1 ml/kg) 30 minutes before trial 1. Test compounds were prepared daily and dissolved in saline, and the pH was adjusted to pH 5-7 using (0.1 N) NaOH. The compounds were administered orally or i.p. over a range of doses to n=12-24 animals per dose (injection volume 1 ml/kg). Time of dosing prior to first trial (T1) can be chosen to match the expected plasma Cmax for the compound. Administration was always given i.p. (injection volume 1 ml/kg).
The object recognition test was performed as described by Ennaceur and Delacour, Behav. Brain Res., 1988, 31, 47-59. This test measures the memory of an animal, by testing the ability of the animal to recognize that there is a new object in its environment. The apparatus consisted of a circular arena, 83 cm in diameter. Half of the 40 cm high wall was made of gray polyvinyl chloride, the other half of transparent polyvinyl chloride. The light intensity was equal in the different parts of the apparatus. Two objects were placed in a symmetrical position about 10 cm away from the gray wall. Each object was available in triplicate. Four different sets of objects were used: 1) a cone consisting of a gray polyvinyl chloride base (maximal diameter 18 cm) with a brass collar on top (total height 16 cm), 2) a standard 1 l transparent glass bottle (diameter 10 cm, height 22 cm) filled with sand, 3) a massive metal block (10.0×5.0×7.5 cm) with two holes (diameter 1.9 cm), and 4) a massive aluminum block with a tapering top (13.0×8.0×8.0 cm). A rat could not displace the objects. Fluorescent red tubes and a light bulb provided a constant illumination of about 20 lux on the floor of the apparatus.
A testing session comprised two trials. The duration of each trial was 3 min. During the first trial (T1) the apparatus contained two identical objects (samples). A rat was always placed in the apparatus facing the wall at the middle of the front (transparent) segment. After the first exploration period the rat was put back in its home cage. Subsequently, after a predetermined delay interval, the rat was put back in the apparatus for the second trial (T2), but now with two dissimilar objects, a familiar one (the sample) and a new object. The times spent in exploring each object during T1 and T2 were recorded manually with a personal computer. “Exploration” was defined as directing the nose to the object at a distance of no more than 2 cm and/or touching the object with the nose. Sitting on the object was not considered as exploratory behavior. In order to avoid the presence of olfactory trails the objects were always thoroughly cleaned. […]
Rats were treated with Compound 18 (0.3, 1, 3 mg/kg po) or Compound 3 (0.1, 0.3, 1 and 3 mg/kg i.p.) 90 or 60 mins prior to administration of scopolamine (0.1 mg/kg ip). The time each animal spent investigating the novel and familiar objects in the arena during a over a 3 min interval, commencing 30 minutes after the administration of scopolamine, was scored. […]

The target of test [4] is T3, human 5-HT6 (Homo sapiens, UniProt P50406).
T3 construct: expressed in transfected cells; host or cells: HEK-293 (HEK293-h5-HT6)
Nature of the test: Competition binding with [3H]-LSD at membranes of HEK-293 cells expressing human 5-HT6. The method, then: All test and control compounds were dissolved in 100% DMSO at 10 mM and diluted as indicated in aqueous assay buffer. K1 values are presented at the mean and standard deviation of 3 separate determinations each consisting of the compound tested at each concentration in duplicate.

The target in test [5] is T4, human recombinant M2 (Homo sapiens, UniProt P08172).
T4 sequence (P08172 1-466): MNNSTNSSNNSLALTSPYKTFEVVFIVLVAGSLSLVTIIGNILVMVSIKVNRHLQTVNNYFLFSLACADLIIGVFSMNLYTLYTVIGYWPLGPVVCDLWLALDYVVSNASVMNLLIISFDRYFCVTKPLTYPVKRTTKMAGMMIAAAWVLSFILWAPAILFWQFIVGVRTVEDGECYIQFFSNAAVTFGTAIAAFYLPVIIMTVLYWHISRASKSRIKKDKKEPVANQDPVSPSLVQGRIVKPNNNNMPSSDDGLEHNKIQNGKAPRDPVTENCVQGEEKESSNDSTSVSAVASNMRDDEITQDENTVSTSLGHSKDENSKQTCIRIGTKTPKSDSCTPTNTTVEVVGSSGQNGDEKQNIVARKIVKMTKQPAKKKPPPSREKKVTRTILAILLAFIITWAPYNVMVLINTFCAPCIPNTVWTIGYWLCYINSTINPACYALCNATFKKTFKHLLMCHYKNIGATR
Nature of the test: Binding affinity at Muscarinic M2 receptor. Particulars: read-out: Receptor Affinity (pKi) Muscarinic M2 (converted).

Test [6] has as its target human recombinant D2 receptor (Homo sapiens, UniProt P14416). Nature of the test: Ligand binding affinity at Dopamine D2 receptor. Particulars: read-out: Receptor Affinity (pKi) Dopamine D2 (converted).
Test [7] addresses T5, human recombinant M1 (Homo sapiens, UniProt P11229).
T5 sequence (P11229 1-460): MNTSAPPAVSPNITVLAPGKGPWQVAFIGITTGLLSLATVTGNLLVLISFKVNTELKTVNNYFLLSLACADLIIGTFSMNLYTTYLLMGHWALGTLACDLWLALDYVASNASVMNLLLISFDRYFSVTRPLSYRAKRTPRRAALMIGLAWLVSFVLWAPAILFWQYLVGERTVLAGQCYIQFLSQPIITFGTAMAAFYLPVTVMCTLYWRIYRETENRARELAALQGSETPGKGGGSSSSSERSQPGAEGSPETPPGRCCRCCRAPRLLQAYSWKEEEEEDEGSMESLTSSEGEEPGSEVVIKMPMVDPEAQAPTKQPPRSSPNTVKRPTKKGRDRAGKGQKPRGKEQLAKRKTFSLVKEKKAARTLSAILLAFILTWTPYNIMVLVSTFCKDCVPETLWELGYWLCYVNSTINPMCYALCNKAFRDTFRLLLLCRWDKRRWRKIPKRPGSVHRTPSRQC
Nature of the test: Binding affinity at Muscarinic M1 receptor. Particulars: read-out: Receptor Affinity (pKi) Muscarinic M1 (converted).

The target of test [8] is human recombinant 5-HT2A (Homo sapiens, UniProt P28223). Nature of the test: Receptor affinity at 5-HT2A (Table 1; only a FLIPR calcium method is described). The class given is binding. Particulars: read-out: Receptor Affinity (pKi) 5-HT2A (converted).
The test system of test [9] is rat brain hippocampal slices (CA1 region). Nature of the test: Long term potentiation in rat hippocampal slices (CA1), fEPSP. The class given is cell-based. Particulars: weak tetanus 50 Hz, 500 ms; room temperature.
Setting [10] is: read-out: Receptor Affinity (pKi) 5-Ht2C (converted).
[11] abbreviates: [3H]-LSD, HEK293-h5-HT6 membranes, read-out: Receptor Affinity (pKi) 5-HT6 (converted).

Read-outs that look alike come from different tables or passages of the source. Some results are limits rather than exact numbers.

human recombinant D2 receptor, sequence (P14416 whole entry): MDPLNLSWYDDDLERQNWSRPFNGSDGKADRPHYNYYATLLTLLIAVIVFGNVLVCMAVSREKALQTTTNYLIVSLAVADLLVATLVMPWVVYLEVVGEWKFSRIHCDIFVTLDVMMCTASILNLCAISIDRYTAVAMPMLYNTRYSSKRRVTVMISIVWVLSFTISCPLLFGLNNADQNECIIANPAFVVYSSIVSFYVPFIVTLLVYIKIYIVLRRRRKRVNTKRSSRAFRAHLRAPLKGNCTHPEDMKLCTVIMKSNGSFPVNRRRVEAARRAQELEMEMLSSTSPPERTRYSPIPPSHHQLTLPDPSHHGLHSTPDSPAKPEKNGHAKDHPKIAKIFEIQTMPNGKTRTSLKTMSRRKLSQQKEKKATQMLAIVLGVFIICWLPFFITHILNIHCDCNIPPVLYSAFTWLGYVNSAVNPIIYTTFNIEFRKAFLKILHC
human recombinant 5-HT2A, sequence (P28223 whole entry): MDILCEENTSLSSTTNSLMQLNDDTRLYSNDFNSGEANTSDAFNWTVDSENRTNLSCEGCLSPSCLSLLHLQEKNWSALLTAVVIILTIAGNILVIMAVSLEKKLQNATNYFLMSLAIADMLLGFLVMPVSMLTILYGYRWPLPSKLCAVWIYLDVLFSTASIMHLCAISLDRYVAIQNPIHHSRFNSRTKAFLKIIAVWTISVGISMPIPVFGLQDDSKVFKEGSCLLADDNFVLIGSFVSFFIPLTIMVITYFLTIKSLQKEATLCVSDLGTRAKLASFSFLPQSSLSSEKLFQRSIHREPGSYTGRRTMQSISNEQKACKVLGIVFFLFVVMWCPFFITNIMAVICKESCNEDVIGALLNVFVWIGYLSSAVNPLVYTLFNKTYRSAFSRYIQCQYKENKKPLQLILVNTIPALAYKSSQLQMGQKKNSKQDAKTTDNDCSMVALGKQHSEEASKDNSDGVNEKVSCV
T3 sequence (P50406 whole entry): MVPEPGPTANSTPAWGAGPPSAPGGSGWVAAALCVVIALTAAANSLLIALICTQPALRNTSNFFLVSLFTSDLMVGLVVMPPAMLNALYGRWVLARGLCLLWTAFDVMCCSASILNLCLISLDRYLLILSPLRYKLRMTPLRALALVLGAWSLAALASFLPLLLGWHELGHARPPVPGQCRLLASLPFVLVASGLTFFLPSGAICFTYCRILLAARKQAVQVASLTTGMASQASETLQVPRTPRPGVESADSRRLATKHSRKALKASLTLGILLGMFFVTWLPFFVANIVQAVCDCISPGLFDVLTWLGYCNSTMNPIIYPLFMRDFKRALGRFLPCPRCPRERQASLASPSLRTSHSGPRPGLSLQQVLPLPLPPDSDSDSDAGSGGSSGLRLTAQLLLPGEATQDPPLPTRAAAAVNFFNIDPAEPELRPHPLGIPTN
T1 sequence (P31389 whole entry): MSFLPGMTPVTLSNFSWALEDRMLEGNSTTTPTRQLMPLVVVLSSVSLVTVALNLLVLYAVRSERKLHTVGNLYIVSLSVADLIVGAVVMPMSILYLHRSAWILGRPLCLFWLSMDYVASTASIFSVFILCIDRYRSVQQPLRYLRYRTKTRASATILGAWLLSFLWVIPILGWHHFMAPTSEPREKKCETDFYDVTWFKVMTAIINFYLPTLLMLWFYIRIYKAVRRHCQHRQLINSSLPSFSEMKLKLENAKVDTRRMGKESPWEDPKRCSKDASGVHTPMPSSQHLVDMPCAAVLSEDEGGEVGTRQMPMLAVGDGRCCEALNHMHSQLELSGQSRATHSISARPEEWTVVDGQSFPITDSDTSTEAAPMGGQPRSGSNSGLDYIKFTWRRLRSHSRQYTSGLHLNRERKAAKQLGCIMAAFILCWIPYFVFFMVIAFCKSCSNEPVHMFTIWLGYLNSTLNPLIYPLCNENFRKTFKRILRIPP

In the case of `O=C1COc2c(N3CCNCC3)cccc2N1Cc1ccccc1` [Compound 3, 4-benzyl-8-piperazin-1-yl-4H-benzo[1,4]oxazin-3-one], the Ki in test [1] is more than 1000 nM; in test [2], 63.1 nM; in [4], 0.158 nM; in test [5], more than 1000 nM; in [6], more than 1000 nM; in [7] it was more than 1000 nM. For the same compound, the Ki in test [8] is 1.26 nM. Moreover, the “reversal of the memory impairment induced by scopolamine (discrimination index d2)” value in [3] (0.3 mg/kg i.p.) is reported as “statistically significant reversal”.
As for `O=C1NCc2c(N3CCNCC3)cccc2N1Cc1cccc(F)c1` [Compound 18, 1-(3-Fluoro-benzyl)-5-piperazin-1-yl-3,4-dihydro-1H-quinazolin-2-one], the Ki is more than 1000 nM in [1]; 63.1 nM in test [2]; 0.631 nM in test [4]; more than 1000 nM in test [5]; more than 1000 nM in [6]; more than 1000 nM in test [7]. The Ki in test [8] was 2 nM. Besides, the “reversal of the memory impairment induced by scopolamine (discrimination index d2)” value in test [3] (0.3 mg/kg po) and in test [3] (1 mg/kg po) was “statistically significant reversal” each time.
Take `CN1CCN(c2cccc3c(S(=O)(=O)c4ccccc4)c[nH]c23)CC1` [Compound 32, 3-phenylsulfonyl-7-(4-methyl-piperazin-1-yl)-1H-indole]: the Ki in test [1] is more than 316 nM; in test [2] (setting [10]), 158 nM; in test [4] (setting [11]) it was 0.316 nM; in [5], more than 316 nM; in test [6], more than 1000 nM; in [7], more than 316 nM. Further, the Ki in test [8] is 79.4 nM. Also, the “reversal of scopolamine-induced memory impairment (discrimination index d2)” value in [3] (3 mg/kg ip) was “Statistically significant reversal”.
Turning to `N=C(N)NCC1CCCc2cc(S(=O)(=O)c3ccccc3)ccc21` (stereo not drawn) [Compound 52, N-(6-Phenylsulfonyl-1,2,3,4-tetrahydro-naphthalen-1-ylmethyl)-guanidine], the Ki in test [1] was more than 1000 nM; in test [2] (setting [10]), 1000 nM; in test [4] (setting [11]) it was 1.26 nM; in test [5] it was more than 1000 nM; in test [6], more than 1000 nM; in [7], more than 1000 nM. Further, the Ki in test [8] is 794 nM.
In the case of `O=c1[nH]c2c(N3CCNCC3)cccc2n1Cc1ccccc1` [Compound 64, 1-Benzyl-4-piperazin-1-yl-1,3-dihydro-benzoimidazol-2-one], the Ki in test [1] was more than 316 nM; in test [2] (setting [10]), 631 nM; in test [4] it was 0.251 nM; in [5] it was more than 316 nM; in [6], more than 1000 nM; in [7], 200 nM. Moreover, the Ki in test [8] was 25.1 nM.
Turning to `COc1cccc([C@H](O)C2CCN(CCc3ccc(F)cc3)CC2)c1OC` [MDL-100907, R-α-(2,3-dimethoxyphenyl)-1-[2-(4-fluorophenyl)ethyl]-4-piperidinemethanol, reference compound], the “long term potentiation, increase in slope of fEPSP relative to pre-tetanus baseline” value in test [9] is recorded as “Increase in long term potentiation”. The “reversal of scopolamine-induced memory impairment (discrimination index d2)” value in test [3] (0.3 mg/kg ip) is “Statistically significant reversal”.
As for `CN(C)CCO/N=C(/C=C/c1ccc(O)cc1)c1ccccc1F` [SR46349B, (1Z,2E)-1-(2-fluorophenyl)-3-(4-hydroxyphenyl)prop-2-en-1-one-O-(2-dimethylaminoethyl)oxime, reference compound], the Ki was more than 1000 nM in [1]; 100 nM in test [2]; more than 1000 nM in [4] (setting [11]); more than 1000 nM in test [5]; more than 1000 nM in test [6]; more than 316 nM in test [7]. Further, the Ki in test [8] was 1 nM.
